Reference: patent publication US7750016B2, “Hydroxyalkyl substituted pyrido-7-pyrimidin-7-ones” (Roche Palo Alto LLC, priority 2003, dated 2010)
Where a name gives a salt, the structure may show the parent alone.

Experiments:
[1] = tested on: LPS-induced IL-1β production in undiluted human whole blood; assay: human whole blood (HWB) in vitro assay, IL-1β ELISA; assay type: cell-based; settings: 0.5 μg/mL LPS, 18 hours, 30 min pre-incubation
Procedure: LPS (lipopolysaccharide) treatment of human whole blood induces IL-1β (Interleukin-1β) production that can be measured by an IL-1β specific ELISA. Human whole blood was pre-incubated with the indicated concentrations of a compound of the present invention in 0.5% DMSO (final concentration) for 30 min at 37° C. Samples were stimulated with 0.5 μg/mL of lipopolysaccharide (LPS, from Sigma) (final concentration) for 18 hours to induce the synthesis and secretion of IL-1β which was measured using an IL-1β ELISA.
A stock solution of 6 mM in DMSO (from Sigma) was prepared by dissolving the compound in DMSO in 449 μL of DMSO. From the 6 mM stock solution, six subsequent half-log serial dilutions in DMSO were performed to give the following concentrations: 1.9 mM, 600, 190, 60, 19, and 6 μM. […] 216 μL DMSO was placed in each of tubes 2-7.
Reconstitution of LPS: in the 10 mg. vial of LPS, 10 mL 1× Phosphate-Buffered Saline (i.e., 1×PBS, from Gibco-BRL) was added, mixed well and transferred to a 50 mL tube. Another 10 mL was added to the LPS vial, followed by rinsing, and this rinse was added to the 50 mL tube and mixed will. The solution was filtered and sterilized, and aliquotted in desired amounts (100 μL aliquot was sufficient for 4 plates). This yielded a 0.5 mg/mL stock which was diluted 1/100 for use in protocol. Just prior to use, the LPS stock was diluted 1/100 (100 μL in 10 mL of RPMI) […]

Row | melting point | IC50 [1] | SMILES
1 | 181.5 to 184.4 °C | – | C[C@H](CO)Nc1ncc2cc(Oc3ccc(F)cc3F)c(=O)n(C[C@@H](C)O)c2n1 (as salt: hydrochloride) [Compound 42, 6-(2,4-Difluoro-phenoxy)-2-((R)-2-hydroxy-1-methyl-ethylamino)-8-((R)-2-hydroxy-propyl)-8H-pyrido[2,3-d]pyrimidin-7-one]
2 | 207.9 to 214.6 °C | – | CC(=O)Cn1c(=O)c(Oc2ccc(F)cc2F)cc2cnc(N[C@@H](C)CO)nc21 (as salt: hydrochloride) [Compound 45, 6-(2,4-Difluoro-phenoxy)-2-((S)-2-hydroxy-1-methyl-ethylamino)-8-(2-oxo-propyl)-8H-pyrido[2,3-d]pyrimidin-7-one]
3 | 207.8 to 216.4 °C | – | CC(=O)Cn1c(=O)c(Oc2ccc(F)cc2F)cc2cnc(N[C@H](C)CO)nc21 (as salt: hydrochloride) [Compound 46, 6-(2,4-Difluoro-phenoxy)-2-((R)-2-hydroxy-1-methyl-ethylamino)-8-(2-oxo-propyl)-8H-pyrido[2,3-d]pyrimidin-7-one]

Second part, the compound before the results:

Row | SMILES | melting point | IC50 [1]
4 | C[C@H](O)Cn1c(=O)c(Oc2ccc(F)cc2F)cc2cnc(N[C@@H](C)CO)nc21 (as salt: hydrochloride) [Compound 16, 6-(2,4-Difluoro-phenoxy)-2-((S)-2-hydroxy-1-methyl-ethylamino)-8-((S)-2-hydroxy-propyl)-8H-pyrido[2,3-d]pyrimidin-7-one] | 175.1 to 179.1 °C | –
5 | C[C@H](O)Cn1c(=O)c(Oc2ccc(F)cc2F)cc2cnc(N[C@H](C)CO)nc21 (as salt: hydrochloride) [Compound 17, 6-(2,4-Difluoro-phenoxy)-2-((R)-2-hydroxy-1-methyl-ethylamino)-8-((S)-2-hydroxy-propyl)-8H-pyrido[2,3-d]pyrimidin-7-one] | 174.9 to 178.1 °C | –
6 | C[C@@H](O)Cn1c(=O)c(Oc2ccc(F)cc2F)cc2cnc(NC(C)(C)CO)nc21 (as salt: hydrochloride) [Compound 31, 6-(2,4-Difluoro-phenoxy)-2-(2-hydroxy-1,1-dimethyl-ethylamino)-8-((R)-2-hydroxy-propyl)-8H-pyrido[2,3-d]pyrimidin-7-one] | 182 to 183.9 °C | –
7 | C[C@H](O)Cn1c(=O)c(Oc2ccc(F)cc2F)cc2cnc(NC(C)(C)CO)nc21 (as salt: hydrochloride) [Compound 36, 6-(2,4-Difluoro-phenoxy)-2-(2-hydroxy-1,1-dimethyl-ethylamino)-8-((S)-2-hydroxy-propyl)-8H-pyrido[2,3-d]pyrimidin-7-one] | 187.4 to 189.9 °C | –
8 | C[C@@H](O)Cn1c(=O)c(Oc2ccc(F)cc2F)cc2cnc(N[C@@H](C)CO)nc21 (as salt: hydrochloride) [Compound 41, 6-(2,4-Difluoro-phenoxy)-2-((S)-2-hydroxy-1-methyl-ethylamino)-8-((R)-2-hydroxy-propyl)-8H-pyrido[2,3-d]pyrimidin-7-one] | 186 to 189.1 °C | –
9 | C[C@@H](O)Cn1c(=O)c(Oc2ccc(F)cc2F)cc2cnc(NC3CCOCC3)nc21 [Compound 20, 6-(2,4-Difluoro-phenoxy)-8-((R)-2-hydroxy-propyl)-2-(tetrahydro-pyran-4-ylamino)-8H-pyrido[2,3-d]pyrimidin-7-one] | – | 1 nM
